Here are results for 86 molecules from ChEMBL document CHEMBL1157539, “Thousands of chemical starting points for antimalarial lead identification” (Nature, 2010).

For this assay, the system named is Plasmodium falciparum. Nature of the assay: GSK_TCMDC: Inhibition of Plasmodium falciparum 3D7 in whole erythrocytes, using parasite LDH activity as an index of growth. The class given is functional, organism-based. Conditions: Plasmodium falciparum, 3D7.
`O=C(/C=C/c1ccc(Cl)cc1)NCCCCCN1CCC(c2c[nH]c3ccccc23)CC1`: the XC50 was found to be 838 nM. `O=C(/C=C/c1ccc(Cl)c(Cl)c1)NCCCCCN1CCC(C(=O)Nc2ccc3c(c2)OCO3)CC1` returned an XC50 of 839 nM. With `CC(C)c1sc(N2CCCCC2)nc1C(=O)Nc1ccc(F)cc1C(F)(F)F` the figure was 239 nM; with `COc1ccc(CCNCCCCCCNCCc2ccccc2Cl)cc1OC`, 657 nM; with `O=C(NCCCCN1CCC(c2ccc3c(c2OCc2ccccn2)CCCC3)CC1)c1ccc(NC(=O)c2ccc(Cl)cc2)cc1`, 803 nM. In turn, `CCCCSc1nc2c(c(=O)n1Cc1ccco1)C1(CCCCC1)Cc1ccccc1-2` yielded an XC50 of 958 nM.

For the molecule `O=S1(=O)NC2(CCN(CCc3ccc(Cl)cc3)CC2)Nc2cc(F)cc(F)c21`, the XC50 is 1460 nM.

`CS(=O)(=O)c1ccc(-c2cc(C(F)(F)F)nc(N[C@@H]3CCCC[C@H]3OCc3ccccc3)n2)cc1` registered an XC50 of 60.4 nM. With `O=C(/C=C/c1ccc([N+](=O)[O-])cc1)N1CCC(NS(=O)(=O)c2ccc(F)cc2)CC1` the figure was 824 nM; with `CS(=O)(=O)c1ccc(CCNCc2ccc(-c3ccc(CN(C(=O)C4CC(=O)c5ccccc54)C4CCN(Cc5ccccc5)CC4)cc3)nc2)cc1` (stereo unspecified), 592 nM; with `O=C(Nc1ccc(-c2nc3ccccc3[nH]2)cc1)c1cccc(S(=O)(=O)N2CCOCC2)c1`, 902 nM. As to `CC1CCc2sc(-c3nnc(SC(C)C(=O)N4CCCC4)o3)cc2C1` (stereo unspecified), the XC50 is 878 nM. Take `COc1ccc2nc3cc(Cl)ccc3c(Nc3ccc(Oc4ccc(Nc5c6ccc(Cl)cc6nc6ccc(OC)cc56)cc4)cc3)c2c1`: the XC50 came out at 859 nM.

In turn, `Cc1cc2nc(-c3ccc(C(=O)NCc4cccc(C(F)(F)F)c4)cc3)[nH]c2cc1C` gave an XC50 of 807 nM. `COc1ccc(CNCc2ccsc2)cc1-c1ccc(S(=O)(=O)NCCN2CCCC2)c(C)c1`: the XC50 is 898 nM. With `CN(C)CCOc1ccc(-c2cc(-c3ccc(Cl)c(O)c3)c(-c3ccnc(N)n3)o2)cc1` the figure was 1320 nM; with `COc1ccc(NC(=O)NC2CCN(CCCOc3ccnc4cc(Cl)ccc34)C2)cc1OC` (stereo unspecified), 792 nM; with `CC(C)NCc1cccc(-c2ccc(-c3nc4cc(C(F)(F)F)ccc4[nH]3)cc2)c1`, 193 nM.

With `O=C(Nc1ccc(-c2nc3ccc(NC(=O)c4ccc(Br)cc4)cc3[nH]2)cc1)c1ccc(Br)cc1`, the XC50 came out at 786 nM.

Molecule `CS(=O)(=O)NCCCNCc1cccc(-c2cccc(-c3nc4cc(C(F)(F)F)ccc4[nH]3)c2)c1` showed an XC50 of 467 nM. With `Cc1ccc(C(=O)Nc2ccc(F)c(F)c2F)cc1S(=O)(=O)N1CCCCC1` the figure was 763 nM; with `CC(C)S(=O)(=O)N1CCN(Cc2ccc3c(c2)nc(NC(=O)c2ccsc2)n3C[C@H](O)c2ccccc2)CC1`, 271 nM. With `NS(=O)(=O)NCCCN1CCN(c2ccccc2)CC1` the figure was 977 nM; with `CCn1c(-c2nonc2N)nc2c(-c3cccc(NC(=O)Nc4cccc(Cl)c4)c3)ncc(OCCCN)c21`, 941 nM; with `CCN(CC)CCCNc1nccc(N2CCc3ncnc(Nc4ccc(OCc5cccc(F)c5)c(Cl)c4)c3C2)n1`, 111 nM. For the molecule `COc1ccc(CCNCCCCCNCCCc2ccc(Cl)cc2)cc1OC`, the XC50 was 808 nM. With `CC[C@H]1CN2CC[C@@H]1C[C@H]2[C@H](O)c1ccnc2ccc(OC)cc12` the figure was 225 nM; with `COc1ccc2c(=NN=CC=Cc3ccccc3)cc(C)[nH]c2c1`, 842 nM. With `Cc1cc(C(=O)Nc2ccc3c(c2)CCN3C2CCN(Cc3ccc(O)cc3)C2)no1` (stereo unspecified) the figure was 774 nM.

`Cc1cc(N[C@@H](CC(C)C)C(=O)NCc2cccs2)nc(NCCc2ccc(F)cc2)n1`: the XC50 was determined as 800 nM. With `CCc1ccc(NC(=O)c2cccc(CN3CCCN(Cc4cccc(O)c4)CC3)c2)cc1` the figure was 894 nM.

With `Cc1nnsc1C(=O)Nc1cccc(-c2ccc(-c3nc4cc(F)ccc4[nH]3)s2)c1`, the XC50 was found to be 889 nM.

Molecule `COc1ccc2c(c1)CC(NCc1ccc(-c3ccc4nc[nH]c4c3)cc1)C2` (stereo unspecified) yielded an XC50 of 880 nM. `COc1ccc2nccc(N3CCC(O)(CCNCc4ccc5c(n4)NC(=O)CO5)CC3)c2n1` showed an XC50 of 819 nM. With `COc1cc2c(OC)cccc2cc1CNCCCCCCNCc1cc2cccc(OC)c2cc1OC` the figure was 823 nM; with `COC(=O)CCn1c(C2CCN(CC3CCC(NC(=O)/C=C/c4ccc(Cl)c(Cl)c4)CC3)CC2)nc2ccccc21` (stereo unspecified), 951 nM. With `CN1CCN(c2ccnc3ccc(NC(=O)Nc4cccc5c(C#N)cccc45)cc23)CC1` the figure was 1050 nM; with `O=C(c1ccccc1)N1CCC(CN2CCOC(c3ccccc3)(c3ccccc3)C2)CC1`, 497 nM. `O=C(C=Cc1ccc(Cl)c(Cl)c1)NCCCCCN1CCCC(CCCNC(=O)/C=C/c2ccccc2)C1` (stereo unspecified) registered an XC50 of 593 nM. With `Oc1ccc(Cc2cc(Oc3c(I)cc(CCc4ncc[nH]4)cc3I)ccc2O)cc1` the figure was 712 nM; with `Cc1ccc(C(=O)Nc2ccc(Cl)c(N3CCN(CCc4ccccc4)CC3)c2)cc1`, 926 nM; with `N#Cc1ccc(CN2CCC(Oc3ccc(NC(=O)c4ccco4)cc3Cl)C2)cc1` (stereo unspecified), 331 nM. `COc1ccc2nccc([C@@H](O)CN3CCC(NCc4cc5ccccn5n4)CC3)c2c1` registered an XC50 of 1570 nM. With `O=C(NC1CCN(Cc2ccccc2O)C1)c1ccc(Cl)c(Cl)c1` (stereo unspecified) the figure was 894 nM; with `Cc1ccc(NC(=O)c2ccc(NCCCN3CC(C)CC(C)C3)c([N+](=O)[O-])c2)cc1F` (stereo unspecified), 711 nM. Consider `COc1ccc(CCNc2nc(N)c3cc(OC)c(OC)cc3n2)cc1`, for which the XC50 is 1120 nM.

`Fc1ccc(C2N=C(SCCSC3=NC(c4ccc(F)cc4)C(c4ccc(F)cc4)N3)NC2c2ccc(F)cc2)cc1` (stereo unspecified) registered an XC50 of 912 nM. `CC(=O)Nc1ccc(CN2CCc3ccc(NS(=O)(=O)c4cccc(OCc5ccc(Cl)cc5)c4)cc3CC2)s1` yielded an XC50 of 906 nM.

`CCCCCCN1CCC(NCc2cccc(C#N)c2)CC1` had an XC50 of 778 nM. `COc1ccc2nccc([C@@H](O)CN3CCC(NCc4ccc5c(c4)NC(=O)C(C)(C)O5)CC3)c2c1` gave an XC50 of 402 nM.

`CCCCCN1CCCC1CNS(=O)(=O)c1ccc(C(=O)Nc2cccc(C(F)(F)F)c2)cc1` (stereo unspecified) registered an XC50 of 1060 nM. In turn, `CN(C)c1ccc(C=Cc2ccc3ccccc3n2)c(Cl)c1` came in with an XC50 of 436 nM. With `Cc1cccc2nc(-c3cccc(-c4ccc(NC(=O)CC5NC(=O)c6ccccc65)cc4)c3)[nH]c12` (stereo unspecified) the figure was 289 nM.

On to `CNCC(C)(C)c1nc(-c2ccc(Cl)c(O)c2)c(-c2ccncc2)[nH]1`, for which the XC50 came out at 736 nM. On to `CC(C)n1ncc2c(C(=O)Nc3ccc(C#N)c(Cl)c3)cc(C3CC3)nc21`, for which the XC50 is 962 nM. With `CC(C)c1ccc(O)cc1Nc1ccnc2ccc(C(F)(F)F)cc12` the figure was 675 nM; with `CCCn1c(Sc2ccc(C#N)c([N+](=O)[O-])c2)nnc1-c1ccc(OC)cc1`, 865 nM. With `C=CCOC(=O)N1CCC(CNCc2ccc(-c3cccc(-c4nc5cc(F)ccc5[nH]4)c3)cc2)C1` (stereo unspecified) the figure was 140 nM. With `COc1cccc(C(=O)OC2=C3CCC(=O)C3(C)CCC2=O)c1` (stereo unspecified) the figure was 77.9 nM; with `CN(C)c1ccc(NC(=O)Nc2ccnc3ccc(Br)cc23)cc1`, 872 nM; with `CCc1cn2c3c(cc(C(=O)N[C@@H](Cc4cccc(Cl)c4)[C@H](O)CNC4CC4)cc13)N(C)S(=O)(=O)CC2`, 145 nM. The molecule `COc1ccc2ccc(F)c(CC(=O)N3CCOC(CNCc4cccc(-c5ccc(F)cc5)n4)C3)c2n1` (stereo unspecified) returned an XC50 of 1010 nM. Take `Cc1c(Cl)ccc2c(C(=O)Nc3ccncc3)cc(-c3cccnc3)nc12`: the XC50 turned out to be 777 nM. With `Cc1ccc(CCC(C)NCC(O)c2cccc(C(F)(F)F)c2)cc1` (stereo unspecified) the figure was 561 nM; with `Cc1nc(-c2ccc(C(F)(F)F)cn2)sc1C(=O)N1CCc2cc3nccc(N4CCN5CCC[C@H]5C4)c3cc21`, 784 nM.

On to `Cc1cc(=NN=Cc2ccc(F)cc2)c2cc(F)ccc2[nH]1`, for which the XC50 was 644 nM.

The molecule `CCN1CCCC(Nc2ccnc3cc4ccccc4cc23)C1` (stereo unspecified) returned an XC50 of 104 nM. Consider `CCN(CC)Cc1cccc(-c2cc3c(-c4ccc(C(=O)O)c(C(C)C)c4)ccnc3[nH]2)c1OC`, for which the XC50 is 323 nM. With `CCN(CCNC(=O)Cn1c(C)cc2cc([N+](=O)[O-])ccc21)c1cccc(C)c1` the figure was 1010 nM. With `Fc1ccc(Nc2nnc(CNC3CCN(Cc4ccc(Cl)c(Cl)c4)CC3)[nH]2)cc1` the figure was 1380 nM; with `CC(C)(C)c1nn(-c2ccccc2)c2[nH]c(=O)c(CNC3CCCC3)cc12`, 850 nM.

As for `CC(C)(C)c1ccc(NC(=O)c2cccc(CN3CCCN(Cc4cccc(O)c4)CC3)c2)cc1`, the XC50 turned out to be 552 nM. As for `O=S1(=O)C=C(c2ccccc2)CC1`, the XC50 was found to be 205 nM.

For `O=c1cc(NCCCN(Cc2ccccc2)Cc2ccccc2)[nH]c2ccccc12`, the XC50 is 577 nM. With `O=C(NCc1ccccc1[S+]([O-])c1ccccc1CO)C(F)(F)F` (stereo unspecified) the figure was 184 nM; with `COC(=O)c1ccccc1COc1ccc(CC2(NC(=O)[C@H](Nc3ccc(C#N)c4ccccc34)C(C)(C)C)CCCC2)cc1`, 856 nM. `CCc1cn(CCS(C)(=O)=O)c2ccc(C(=O)N[C@@H](Cc3ccccc3)[C@H](O)CNC(C)(C)CCCC(C)C)cc12` registered an XC50 of 877 nM. With `CN(C)CCCOc1ccc(CCNCc2cccc(Oc3ccc(Cl)cc3)c2)cc1` the figure was 887 nM; with `CC(C)CNCc1ccc(-c2cccc(CNc3ccc4ncccc4c3)c2)cc1`, 913 nM; with `COc1cccc(CN2CCN(C(c3ccccc3)c3ccccc3)CC2)c1O`, 781 nM. With `Cn1cncc1C(=O)Nc1cccc(-c2ccc(-c3nc4cc(F)ccc4[nH]3)cc2)c1` the figure was 735 nM; with `CSc1cccc(NC(=O)c2cc3ccccc3oc2=O)c1`, 833 nM.

Regarding `COc1ccc2nccc(NC(=O)C3CCC(NCc4ccc5c(c4)NC(=O)CS5)CC3)c2c1` (stereo unspecified), the XC50 was 586 nM.

In turn, `CN(CCCc1c[nH]c2ccccc12)CC1CCN(C(=O)/C=C/c2ccc(Cl)c(Cl)c2)CC1` displayed an XC50 of 747 nM.

For `COc1ccc(CCNc2nc(SCc3ccccc3Cl)nc3ccccc23)cc1OC`, the XC50 was found to be 943 nM. With `O=C(Nc1ccccc1N1CCOCC1)c1ncoc1-c1ccccc1C(F)(F)F` the figure was 1060 nM.
